ChEMBL document CHEMBL3046130, “Apteniols AF, oxyneolignans from the leaves of Aptenia cordifolia” (Tetrahedron, 2005)
The source made the active and inactive calls. The calls are words filed in the database; no cut-off is given here.

Key:
Lactuca sativa [1] = test: Phytotoxicity against Lactuca sativa (lettuce) assessed as reduction of seed germination measured daily for 5 days relative to control; format: functional, organism-based
Lactuca sativa [2] = test: Phytotoxicity against Lactuca sativa (lettuce) assessed as reduction of seed germination at 10^-5 M measured daily for 5 days relative to control; format: functional; parameters: scale not given: the % may be the effect or the level left
Lactuca sativa [3] = test: Phytotoxicity against Lactuca sativa (lettuce) assessed as reduction of root elongation at 10^-4 M measured daily for 5 days relative to control; format: functional; parameters: scale not given: the % may be the effect or the level left
Lactuca sativa [4] = test: Phytotoxicity against Lactuca sativa (lettuce) assessed as reduction of shoot elongation at 10^-7 M measured daily for 5 days relative to control; format: functional, organism-based
Lactuca sativa [5] = test: Stimulation of root elongation in Lactuca sativa (lettuce) at 10^-7 M measured daily for 5 days relative to control; format: organism-based; details: in vivo, 120 h, 0.1 µM

Row | SMILES | Activity (Lactuca sativa [1]) | Activity (Lactuca sativa [2]) | Activity (Lactuca sativa [3]) | Activity (Lactuca sativa [4]) | Activity (Lactuca sativa [5])
1 | COc1cc(CCC(=O)O)ccc1Oc1c(OC)cc(CCC(=O)O)cc1OC [APTENIOL D] | Dose-dependent effect | 25% | 20% |  | 
2 | O=C(O)CCc1ccc(Oc2ccc(CCC(=O)O)cc2)cc1 [APTENIOL A] | Dose-dependent effect | 25% | 40% | inactive | 
3 | COC(=O)CCc1ccc(Oc2ccc(CCC(=O)OC)cc2OC)cc1 [APTENIOL C] | Dose-dependent effect | 25% | inactive | inactive | 
4 | COc1cc(CCC(=O)O)ccc1Oc1ccc(CCC(=O)O)cc1 [APTENIOL B] | Dose-dependent effect | 25% | 20% |  | 20%
5 | COc1cc(CCC(=O)O)cc(OC)c1Oc1c(OC)cc(CCC(=O)O)cc1OC [APTENIOL E] | Dose-dependent effect | 25% | 20% |  | 20%
6 | COc1cc(CCC(=O)O)ccc1Oc1ccccc1CCC(=O)O [APTENIOL F] | Dose-dependent effect | 25% | 20% | inactive | 
